Measurements from patent US12493040B2, “Cancer detection method using sense of smell of nematode” (HIROTSU BIO SCIENCE INC., priority 2013, dated 2025).

System: RNAi-treated eri-1 (mg366) nematodes
Experiment: RNAi screening of olfactory receptor genes: chemotaxis assay of RNAi-treated nematodes to odorants
Type: in vivo, Caenorhabditis elegans
Conditions: low concentration of attractant
How it was run: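 eri-1 (mg366) worms knocked down by feeding RNAi (Ahringer library) on IPTG/ampicillin NGM plates with E. coli for 4 days, then tested for chemotaxis, 30–50 worms per assay. Odorants at 1 μl of 10^−3 or 10^−4 dilution, or 1 and 5 μl undiluted. Hits scored by z score, thresholds ±1.96 (P<0.05) or ±0.96.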

Work on c1cnccn1 [pyrazine] yielded a chemotaxis index (Control nematodes) of 0.49 ± 0.019, a chemotaxis index (srh-10 RNAi-treated nematodes) of 0.67 and a chemotaxis index (srh-11 RNAi-treated nematodes) of 0.87. It also gave a chemotaxis index (srh-15 RNAi-treated nematodes) of 0.78, a chemotaxis index (srh-16 RNAi-treated nematodes) of 0.82 and a chemotaxis index (srh-18 RNAi-treated nematodes) of 0.73. It also gave a chemotaxis index (srh-19 RNAi-treated nematodes) of 0.33, a chemotaxis index (srh-22 RNAi-treated nematodes) of 0.82 and a chemotaxis index (srh-23 RNAi-treated nematodes) of 0.43. The chemotaxis index (srh-24 RNAi-treated nematodes) was 0.57, the chemotaxis index (srh-25 RNAi-treated nematodes) was 0.64 and the chemotaxis index (srh-27 RNAi-treated nematodes) was 0.32. For the same compound, the chemotaxis index (srh-28 RNAi-treated nematodes) was 0.23, the chemotaxis index (srh-36 RNAi-treated nematodes) was 0.53 and the chemotaxis index (srh-37 RNAi-treated nematodes) was 0.88. The chemotaxis index (srh-39 RNAi-treated nematodes) was 0.11, the chemotaxis index (srh-40 RNAi-treated nematodes) was 0.51 and the chemotaxis index (srh-41 RNAi-treated nematodes) was 0.71. The chemotaxis index (srh-44 RNAi-treated nematodes) was 0.44, the chemotaxis index (srh-45 RNAi-treated nematodes) was 0.74 and the chemotaxis index (srh-46 RNAi-treated nematodes) was −0.04. It also gave a chemotaxis index (srh-48 RNAi-treated nematodes) of 0.15, a chemotaxis index (srh-49 RNAi-treated nematodes) of 0.52 and a chemotaxis index (srh-50 RNAi-treated nematodes) of 0.83. For the same compound, the chemotaxis index (srh-51 RNAi-treated nematodes) was 0.31, the chemotaxis index (srh-52 RNAi-treated nematodes) was 0.55 and the chemotaxis index (srh-55 RNAi-treated nematodes) was 0.56. The chemotaxis index (srh-59 RNAi-treated nematodes) was 0.04, the chemotaxis index (srh-60 RNAi-treated nematodes) was 0.52 and the chemotaxis index (srh-61 RNAi-treated nematodes) was 0.27. For the same compound, the chemotaxis index (srh-67 RNAi-treated nematodes) was 0.39, the chemotaxis index (srh-68 RNAi-treated nematodes) was 0.36 and the chemotaxis index (srh-69 RNAi-treated nematodes) was 0.35. For the same compound, the chemotaxis index (srh-70 RNAi-treated nematodes) was 0.41, the chemotaxis index (srh-71 RNAi-treated nematodes) was 0.56 and the chemotaxis index (srh-72 RNAi-treated nematodes) was 0.50. For the same compound, the chemotaxis index (srh-74 RNAi-treated nematodes) was 0.26, the chemotaxis index (srh-75 RNAi-treated nematodes) was 0.71 and the chemotaxis index (srh-77 RNAi-treated nematodes) was 0.44. For the same compound, the chemotaxis index (srh-79 RNAi-treated nematodes) was 0.12, the chemotaxis index (srh-80 RNAi-treated nematodes) was 0.40 and the chemotaxis index (srh-82 RNAi-treated nematodes) was 0.31. For the same compound, the chemotaxis index (srh-83 RNAi-treated nematodes) was 0.38, the chemotaxis index (srh-97 RNAi-treated nematodes) was 0.66 and the chemotaxis index (srh-99 RNAi-treated nematodes) was 0.29. For the same compound, the chemotaxis index (srh-100 RNAi-treated nematodes) was 0.30, the chemotaxis index (srh-104 RNAi-treated nematodes) was −0.18 and the chemotaxis index (srh-105 RNAi-treated nematodes) was 0.32. For the same compound, the chemotaxis index (srh-109 RNAi-treated nematodes) was 0.32, the chemotaxis index (srh-111 RNAi-treated nematodes) was −0.23 and the chemotaxis index (srh-113 RNAi-treated nematodes) was 0.35. The chemotaxis index (srh-115 RNAi-treated nematodes) was 0.19, the chemotaxis index (srh-116 RNAi-treated nematodes) was 0.35 and the chemotaxis index (srh-118 RNAi-treated nematodes) was 0.36. The chemotaxis index (srh-119 RNAi-treated nematodes) was 0.37, the chemotaxis index (srh-120 RNAi-treated nematodes) was 0.54 and the chemotaxis index (srh-122 RNAi-treated nematodes) was 0.47. The chemotaxis index (srh-123 RNAi-treated nematodes) was 0.63, the chemotaxis index (srh-125 RNAi-treated nematodes) was 0.39 and the chemotaxis index (srh-128 RNAi-treated nematodes) was 0.54. The chemotaxis index (srh-129 RNAi-treated nematodes) was 0.71, the chemotaxis index (srh-130 RNAi-treated nematodes) was 0.22 and the chemotaxis index (srh-214 RNAi-treated nematodes) was 0.72. The chemotaxis index (srh-216 RNAi-treated nematodes) was 0.60, the chemotaxis index (srh-217 RNAi-treated nematodes) was 0.94 and the chemotaxis index (srh-220 RNAi-treated nematodes) was 0.40. It also gave a chemotaxis index (srh-222 RNAi-treated nematodes) of 0.65, a chemotaxis index (srh-223 RNAi-treated nematodes) of 0.43 and a chemotaxis index (srh-227 RNAi-treated nematodes) of 0.35. The chemotaxis index (srh-229 RNAi-treated nematodes) was 0.09, the chemotaxis index (srh-233 RNAi-treated nematodes) was 0.49 and the chemotaxis index (srh-235 RNAi-treated nematodes) was 0.73. For the same compound, the chemotaxis index (srh-236 RNAi-treated nematodes) was 0.44, the chemotaxis index (srh-239 RNAi-treated nematodes) was 0.54 and the chemotaxis index (srh-241 RNAi-treated nematodes) was 0.78. The chemotaxis index (srh-243 RNAi-treated nematodes) was 0.48, the chemotaxis index (srh-244 RNAi-treated nematodes) was 0.34 and the chemotaxis index (srh-247 RNAi-treated nematodes) was 0.49. For the same compound, the chemotaxis index (srh-250 RNAi-treated nematodes) was 0.55, the chemotaxis index (srh-251 RNAi-treated nematodes) was 0.32 and the chemotaxis index (srh-252 RNAi-treated nematodes) was 0.87. For the same compound, the chemotaxis index (srh-258 RNAi-treated nematodes) was 0.44, the chemotaxis index (srh-261 RNAi-treated nematodes) was 0.57 and the chemotaxis index (srh-264 RNAi-treated nematodes) was 0.85. The chemotaxis index (srh-266 RNAi-treated nematodes) was −0.14, the chemotaxis index (srh-274 RNAi-treated nematodes) was 0.12 and the chemotaxis index (srh-275 RNAi-treated nematodes) was 0.42. It also gave a chemotaxis index (srh-276 RNAi-treated nematodes) of 0.44, a chemotaxis index (srh-277 RNAi-treated nematodes) of 0.81 and a chemotaxis index (srh-279 RNAi-treated nematodes) of 0.37. It also gave a chemotaxis index (srh-281 RNAi-treated nematodes) of 0.01, a chemotaxis index (srh-282 RNAi-treated nematodes) of 0.55 and a chemotaxis index (srh-283 RNAi-treated nematodes) of 0.26. It also gave a chemotaxis index (srh-284 RNAi-treated nematodes) of 0.49, a chemotaxis index (srh-291 RNAi-treated nematodes) of 0.82 and a chemotaxis index (srh-292 RNAi-treated nematodes) of 0.43. It also gave a chemotaxis index (srh-293 RNAi-treated nematodes) of 0.59, a chemotaxis index (srh-297 RNAi-treated nematodes) of 0.29 and a chemotaxis index (srh-298 RNAi-treated nematodes) of 0.33. The chemotaxis index (srh-308 RNAi-treated nematodes) was 0.15.
